Measurements: the kinase profiling compilation of Christmann-Franck et al. (2016)

How the values were obtained:
Experiment in all cases: radiometric filter-binding kinase assay, Kinaseprofiler
[1] = test system: MAPKAPK5 (human), Q8IW41 [R291E]; details: ATP 15 µM
[2] = test system: PHKG2 (human), P15735 [F290L]; details: ATP 10 µM
[3] = test system: AKT3 (human), Q9Y243 [S472D]; details: ATP 45 µM
[4] = test system: CSNK1G3 (human), Q9Y6M4 [K91E/R174G/E302D]; details: ATP 10 µM
[5] = test system: GSK3B (human), P49841 [H350L]; details: ATP 15 µM
GSK3B (human), P49841 [H350L], sequence (P49841 whole entry, looked up, stated change not applied): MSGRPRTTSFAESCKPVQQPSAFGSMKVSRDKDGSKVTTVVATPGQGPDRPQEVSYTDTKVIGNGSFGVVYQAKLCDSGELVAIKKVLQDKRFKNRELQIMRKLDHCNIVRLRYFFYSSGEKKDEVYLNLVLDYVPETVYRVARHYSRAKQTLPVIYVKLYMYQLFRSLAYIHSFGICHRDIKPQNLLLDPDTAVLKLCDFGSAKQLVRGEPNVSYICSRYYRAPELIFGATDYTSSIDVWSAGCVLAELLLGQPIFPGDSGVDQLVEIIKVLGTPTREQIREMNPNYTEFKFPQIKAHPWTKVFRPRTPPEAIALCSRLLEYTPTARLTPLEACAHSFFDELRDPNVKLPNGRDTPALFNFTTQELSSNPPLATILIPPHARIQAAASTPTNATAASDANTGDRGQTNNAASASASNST

[6] = test system: ROS1 (human), P08922 [V2262A]; details: ATP 200 µM
ROS1 (human), P08922 [V2262A], sequence (P08922 whole entry, looked up, stated change not applied): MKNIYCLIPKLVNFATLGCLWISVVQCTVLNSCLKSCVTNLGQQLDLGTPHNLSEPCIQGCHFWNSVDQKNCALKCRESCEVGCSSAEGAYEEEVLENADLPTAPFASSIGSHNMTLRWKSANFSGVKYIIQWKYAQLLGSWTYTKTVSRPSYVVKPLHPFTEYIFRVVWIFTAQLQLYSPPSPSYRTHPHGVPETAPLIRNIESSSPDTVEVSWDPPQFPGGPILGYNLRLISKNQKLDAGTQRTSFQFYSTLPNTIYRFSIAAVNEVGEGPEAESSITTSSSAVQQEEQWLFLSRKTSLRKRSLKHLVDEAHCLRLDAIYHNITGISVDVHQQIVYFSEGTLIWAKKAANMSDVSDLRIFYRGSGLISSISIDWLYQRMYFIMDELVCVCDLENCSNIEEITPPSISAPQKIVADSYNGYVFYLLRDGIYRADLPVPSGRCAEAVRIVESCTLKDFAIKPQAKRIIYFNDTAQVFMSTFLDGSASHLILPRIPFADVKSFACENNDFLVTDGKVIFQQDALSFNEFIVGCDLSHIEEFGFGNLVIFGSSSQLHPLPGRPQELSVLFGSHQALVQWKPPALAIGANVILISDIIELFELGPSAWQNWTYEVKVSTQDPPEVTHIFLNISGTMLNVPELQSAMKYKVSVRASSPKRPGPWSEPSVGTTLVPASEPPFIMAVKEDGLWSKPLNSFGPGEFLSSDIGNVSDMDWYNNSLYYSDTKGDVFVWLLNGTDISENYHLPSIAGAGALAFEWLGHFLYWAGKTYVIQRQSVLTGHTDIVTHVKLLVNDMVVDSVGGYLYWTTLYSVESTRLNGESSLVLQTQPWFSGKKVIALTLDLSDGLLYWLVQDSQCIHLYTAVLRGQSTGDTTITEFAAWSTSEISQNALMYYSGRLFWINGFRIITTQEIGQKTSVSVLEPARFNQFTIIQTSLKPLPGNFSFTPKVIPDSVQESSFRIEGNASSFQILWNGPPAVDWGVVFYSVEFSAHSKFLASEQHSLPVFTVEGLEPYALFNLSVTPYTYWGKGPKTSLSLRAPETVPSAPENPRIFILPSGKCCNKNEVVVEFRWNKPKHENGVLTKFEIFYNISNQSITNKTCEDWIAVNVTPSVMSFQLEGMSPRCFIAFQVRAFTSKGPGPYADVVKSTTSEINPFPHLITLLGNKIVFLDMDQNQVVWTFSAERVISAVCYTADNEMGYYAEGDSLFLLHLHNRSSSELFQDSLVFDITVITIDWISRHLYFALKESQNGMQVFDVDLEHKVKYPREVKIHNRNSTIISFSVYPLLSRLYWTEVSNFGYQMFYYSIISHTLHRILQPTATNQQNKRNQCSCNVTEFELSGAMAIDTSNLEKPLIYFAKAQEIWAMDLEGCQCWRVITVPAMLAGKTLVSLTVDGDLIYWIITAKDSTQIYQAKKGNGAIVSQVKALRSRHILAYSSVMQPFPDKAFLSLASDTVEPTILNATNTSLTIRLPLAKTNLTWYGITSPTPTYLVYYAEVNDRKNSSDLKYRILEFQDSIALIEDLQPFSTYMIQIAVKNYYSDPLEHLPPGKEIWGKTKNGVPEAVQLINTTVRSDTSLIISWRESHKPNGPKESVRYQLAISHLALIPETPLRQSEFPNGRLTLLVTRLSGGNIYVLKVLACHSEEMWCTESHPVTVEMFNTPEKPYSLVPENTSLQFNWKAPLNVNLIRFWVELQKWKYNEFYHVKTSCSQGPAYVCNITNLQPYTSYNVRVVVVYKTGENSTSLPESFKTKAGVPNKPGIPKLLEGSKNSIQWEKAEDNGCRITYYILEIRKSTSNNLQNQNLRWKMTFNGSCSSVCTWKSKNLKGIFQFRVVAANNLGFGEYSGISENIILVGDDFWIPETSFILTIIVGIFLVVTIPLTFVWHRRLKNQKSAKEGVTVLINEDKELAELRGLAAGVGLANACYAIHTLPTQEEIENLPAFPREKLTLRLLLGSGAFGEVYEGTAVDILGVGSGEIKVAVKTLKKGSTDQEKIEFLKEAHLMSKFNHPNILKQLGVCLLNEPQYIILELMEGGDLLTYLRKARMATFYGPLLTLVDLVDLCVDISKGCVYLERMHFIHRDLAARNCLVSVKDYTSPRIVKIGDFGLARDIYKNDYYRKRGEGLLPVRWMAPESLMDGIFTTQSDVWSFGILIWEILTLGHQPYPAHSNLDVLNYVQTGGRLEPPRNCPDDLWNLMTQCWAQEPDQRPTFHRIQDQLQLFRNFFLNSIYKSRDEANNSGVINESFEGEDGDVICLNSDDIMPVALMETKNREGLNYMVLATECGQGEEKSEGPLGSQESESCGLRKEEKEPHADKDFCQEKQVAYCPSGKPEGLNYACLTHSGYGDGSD

MAPKAPK5 (human), Q8IW41 [R291E], sequence (Q8IW41 whole entry, looked up, stated change not applied): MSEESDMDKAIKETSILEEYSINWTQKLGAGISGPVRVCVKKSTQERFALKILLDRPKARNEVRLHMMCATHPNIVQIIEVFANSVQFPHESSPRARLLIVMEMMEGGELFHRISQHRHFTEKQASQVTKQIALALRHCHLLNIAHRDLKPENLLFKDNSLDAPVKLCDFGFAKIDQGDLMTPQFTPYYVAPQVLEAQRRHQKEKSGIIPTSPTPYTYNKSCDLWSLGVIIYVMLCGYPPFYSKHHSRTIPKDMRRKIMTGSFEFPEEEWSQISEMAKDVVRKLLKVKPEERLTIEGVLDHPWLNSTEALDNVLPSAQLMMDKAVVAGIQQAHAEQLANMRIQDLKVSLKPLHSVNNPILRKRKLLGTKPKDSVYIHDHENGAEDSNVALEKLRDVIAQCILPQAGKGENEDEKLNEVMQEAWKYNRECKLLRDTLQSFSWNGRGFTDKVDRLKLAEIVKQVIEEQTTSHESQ
PHKG2 (human), P15735 [F290L], sequence (P15735 whole entry F290L, looked up): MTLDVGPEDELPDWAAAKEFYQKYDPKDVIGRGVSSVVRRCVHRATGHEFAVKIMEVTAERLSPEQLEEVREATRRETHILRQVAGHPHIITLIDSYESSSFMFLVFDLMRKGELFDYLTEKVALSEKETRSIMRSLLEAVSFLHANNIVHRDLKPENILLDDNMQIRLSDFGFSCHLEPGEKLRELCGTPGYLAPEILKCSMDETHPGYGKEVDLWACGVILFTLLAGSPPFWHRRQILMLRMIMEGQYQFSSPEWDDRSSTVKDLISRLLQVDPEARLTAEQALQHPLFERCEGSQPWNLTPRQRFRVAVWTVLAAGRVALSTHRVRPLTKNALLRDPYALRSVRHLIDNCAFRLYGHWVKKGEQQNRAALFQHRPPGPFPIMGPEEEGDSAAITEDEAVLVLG
AKT3 (human), Q9Y243 [S472D], sequence (Q9Y243 whole entry S472D, looked up): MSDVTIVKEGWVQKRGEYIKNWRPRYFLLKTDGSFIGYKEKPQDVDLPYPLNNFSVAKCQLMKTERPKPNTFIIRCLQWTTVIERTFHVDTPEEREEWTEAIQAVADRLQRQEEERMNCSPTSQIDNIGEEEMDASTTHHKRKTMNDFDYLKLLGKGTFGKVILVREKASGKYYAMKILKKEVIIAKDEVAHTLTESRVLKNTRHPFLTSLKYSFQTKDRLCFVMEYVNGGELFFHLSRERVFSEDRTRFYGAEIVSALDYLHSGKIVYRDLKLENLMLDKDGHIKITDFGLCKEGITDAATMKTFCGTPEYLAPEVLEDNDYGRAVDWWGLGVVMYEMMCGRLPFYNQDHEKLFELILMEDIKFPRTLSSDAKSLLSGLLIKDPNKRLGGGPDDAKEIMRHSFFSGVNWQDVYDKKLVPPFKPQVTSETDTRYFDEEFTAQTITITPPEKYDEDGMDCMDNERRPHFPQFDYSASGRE
CSNK1G3 (human), Q9Y6M4 [K91E/R174G/E302D], sequence (Q9Y6M4 whole entry, looked up, stated change not applied): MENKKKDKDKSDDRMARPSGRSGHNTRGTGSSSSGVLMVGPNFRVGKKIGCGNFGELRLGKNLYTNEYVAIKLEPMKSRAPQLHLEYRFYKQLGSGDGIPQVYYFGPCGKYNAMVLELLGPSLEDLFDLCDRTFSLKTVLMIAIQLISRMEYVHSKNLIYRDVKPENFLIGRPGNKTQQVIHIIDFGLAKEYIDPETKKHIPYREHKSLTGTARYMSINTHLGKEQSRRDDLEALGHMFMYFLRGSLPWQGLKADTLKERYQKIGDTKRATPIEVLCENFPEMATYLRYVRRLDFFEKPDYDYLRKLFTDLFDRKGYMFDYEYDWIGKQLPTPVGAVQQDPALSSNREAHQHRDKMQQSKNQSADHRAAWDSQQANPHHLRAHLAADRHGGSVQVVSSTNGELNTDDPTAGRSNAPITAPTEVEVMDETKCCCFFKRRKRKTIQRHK

With `COC(=O)[C@]1(O)C[C@@H]2O[C@@]1(C)n1c3ccccc3c3c4c(c5c6ccccc6n2c5c31)C(=O)NC4` the residual activity ([1]; compound 10.0 µM) was 0% and the residual activity ([2]; compound 1.0 µM) was 0%.

In the case of `CN[C@@H]1C[C@H]2O[C@@](C)([C@@H]1OC)n1c3ccccc3c3c4c(c5c6ccccc6n2c5c31)C(=O)NC4`, the residual activity ([3]; compound 10.0 µM) is reported as 0%, the residual activity ([4]; compound 1.0 µM) is reported as 95% and the residual activity ([4]; compound 10.0 µM) is reported as 52%.

`O=C1c2ccccc2-c2n[nH]c3cccc1c23` gave a residual activity ([3]; compound 1.0 µM) of 89%, a residual activity ([3]; compound 10.0 µM) of 66% and a residual activity ([4]; compound 1.0 µM) of 83%. For the same compound, the residual activity ([4]; compound 10.0 µM) was 31%, the residual activity ([5]; compound 1.0 µM) was 74% and the residual activity ([5]; compound 10.0 µM) was 58%. The residual activity ([1]; compound 1.0 µM) was 59%, the residual activity ([1]; compound 10.0 µM) was 14% and the residual activity ([2]; compound 1.0 µM) was 77%. It also gave a residual activity ([2]; compound 10.0 µM) of 15%, a residual activity ([6]; compound 1.0 µM) of 93% and a residual activity ([6]; compound 10.0 µM) of 85%.

With `O=C(Nc1cccc(Nc2nccc(Nc3cccc(C(F)(F)F)c3)n2)c1)C1CC1` the residual activity ([2]; compound 10.0 µM) was 100%.

Work on `O=C1Nc2ccccc2/C1=C1\Nc2ccccc2\C1=N/O` yielded a residual activity ([3]; compound 1.0 µM) of 95%, a residual activity ([3]; compound 10.0 µM) of 64% and a residual activity ([4]; compound 1.0 µM) of 63%. For the same compound, the residual activity ([4]; compound 10.0 µM) was 20%, the residual activity ([5]; compound 1.0 µM) was 10% and the residual activity ([5]; compound 10.0 µM) was 1%. It also gave a residual activity ([1]; compound 1.0 µM) of 78%, a residual activity ([1]; compound 10.0 µM) of 24% and a residual activity ([2]; compound 1.0 µM) of 25%. For the same compound, the residual activity ([2]; compound 10.0 µM) was 12%, the residual activity ([6]; compound 1.0 µM) was 105% and the residual activity ([6]; compound 10.0 µM) was 88%.
